Assay results: US20240165114A1, “TREATMENT OF DIABETIC NEPHROPATHY WITH AN sGC STIMULATOR” (Cyclerion Therapeutics, Inc., priority 2019, published 2024)

Columns and labels:
Assay type in all cases: in vivo, human
[1] = test system: adult patients with type 2 diabetes mellitus with albuminuria; experiment: Phase 2 study: fasting plasma glucose; settings: ITT
Description: (§1) Other secondary objectives of this clinical study included the evaluation of the pharmacokinetic (PK) concentrations of oral IW-1973 and the exploration of the effect of oral IW-1973 on hemodynamics and metabolic effects when administered daily for approximately 12 weeks to adult patients with type 2 diabetes mellitus with albuminuria (i.e., DN patients) who were on a stable regimen of renin-angiotensin system inhibitors (RAAS inhibitors, i.e., ACEi's and ARBs).
(§2) Clinical laboratory assessments obtained during the performance of this clinical trial included: complete blood count, serum chemistry panel, urinalysis, coagulation panel, estimated glomerular filtration rate (eGFR; determined by the Chronic Kidney Disease Epidemiology Collaboration [CKD-EPI] creatinine equation), hemoglobin A1c (HbA1C), Homeostatic Model Assessment to estimate insulin resistance (HOMA-IR), platelet function assessment (using VerifyNow®, at a subset of sites), urine pregnancy, and screens for hepatitis, human immunodeficiency virus, and drugs of abuse.
(§3) This multicenter, randomized, double-blind, placebo-controlled, parallel-group study evaluated 2 dose levels of IW-1973 compared with placebo. The study population consisted of adult patients with type 2 diabetes mellitus, albuminuria, and impaired renal function. Patients had to have been taking antihyperglycemic medications for at least 12 weeks with their regimen being stable (ie, drug and dose) for at least 28 days before the Randomization Visit. Additionally, patients had to have been on a stable regimen of angiotensin-converting enzyme inhibitor (ACEi) or an angiotensin receptor blocker (ARB), for at least 28 days before the Randomization Visit. For more details, see Inclusion Criteria below. A total of 156 patients (approximately 50 patients per arm) were stratified by baseline estimated glomerular filtration rate (eGFR) into three groups: eGFR 30 to 45, >45 to 60, and >60 to 75 mL/min/1.73 m^2) and randomized approximately 1:1:1 to total daily 20 mg IW-1973, 40 mg IW-1973, or placebo.

[2] = test system: adult patients with type 2 diabetes mellitus with albuminuria; experiment: Phase 2 study: change from baseline in urine albumin to creatinine ratio (UACR); settings: for Between PRL and PBO Group Geometric Mean % Change UACR from Baseline: placebo adjusted; for UACR: Mean CFB at Weeks 8 & 12, Placebo Adjusted / UACR: Mean CFB at Weeks 8 & 12, Within Group: text b231-232 says Week 12
Description: A Multicenter, Randomized, Double-blind, Placebo-controlled, Phase2 Study to Evaluate the Safety and Efficacy of IW-1973 in Patients with Type 2 Diabetes with Albuminuria Treated with Renin-Angiotensin System Inhibitors
The primary objectives of this clinical study (Clinical Trials.gov Identifier NCT03217591) were to assess the safety and tolerability and to evaluate the effect of oral IW-1973 on renal function when administered daily for approximately 12 weeks to adult patients with type 2 diabetes mellitus with albuminuria who were on a stable regimen of renin-angiotensin system inhibitors ([…] or ARBs).
The primary efficacy endpoint of this trial was the change from baseline in Urine Albumin to Creatinine Ratio (UACR) at Weeks 8 and 12. UACR was determined as the concentration of urine albumin [mg/dL] divided by the concentration of urine creatinine [g/dL]) from urinalysis. First morning void urine samples were collected. To reduce variability, the measurement of UACR was the average of 2-first morning void tests at each timepoint.
as §3
Treatment Period: The Treatment Period began on Day 1 at Randomization (there was no Day 0) and ended after the End of Treatment Visit on Day 87 (±3). Patients were stratified in one of three groups by baseline eGFR (ie, eGFR 30 to 45, >45 to 60, and >60 to 75 mL/min/1.73 m2) and randomized in an approximate1:1:1 ratio to receive 20 mg IW-1973, 40 mg IW-1973, or placebo for approximately 12 weeks.
Dosing on Days 1 to 7 (±1) was BID (twice daily), morning and evening; dosing on Day 8 (±1) and onward was QD (once daily), 2 tablets in the morning. At the Randomization Visit on Day 1, patients received their morning dose of study drug in the clinic and underwent safety, efficacy, and pharmacokinetic (PK) assessments, including blood and urine collections at prespecified times. Patients stayed in the clinic at least 6 hours postdose and were able to leave the clinic at the Investigator's discretion following all study procedures. At the Week 1 Visit on Day 8 (±1), patients returned to the clinic and received their first QD dose of study drug in the clinic. Patients underwent safety, efficacy, and PK assessments, including blood and urine collections at prespecified times. Patients stayed in the clinic at least 6 hours postdose and were able to leave the clinic at the Investigator's discretion following all study procedures. At the Week 4 (Day 29±3), Week 8 (Day 57±3), and End of Treatment (Day 87±3) Visits, patients returned to the clinic for study drug administration; safety, efficacy, and PK assessments; and study drug supply, if applicable.
One week at 10 mg BID followed by 20 mg QD for the remainder of the trial, i.e., a 20 mg total daily dosage; or
One week at 20 mg BID, followed by 40 mg QD for the remainder of the trial, i.e., a 40 mg total daily dosage.

[3] = test system: adult patients with type 2 diabetes mellitus with albuminuria; experiment: Phase 2 study: serum cholesterol; settings: for Serum Cholesterol: Between PRL and PBO Group LS Mean Change from Baseline at week 12 / Serum Cholesterol: Within Group LS Mean Change from Baseline at Week 12: ITT; for Cholesterol: Placebo-Adjusted LS Mean Change from Baseline at Week 12 / Cholesterol: Within Group LS Mean Change from Baseline at Week 12: mITT Population
Description: as §1, §2, §3

[4] = ITT, Week 12, PRL 20 mg total daily
[5] = ITT, Week 12, PRL 40 mg total daily
[6] = ITT, Weeks 8 & 12, PRL 20 mg total daily

`OC(CNc1nc(-c2cc(-c3ccon3)n(Cc3ccccc3F)n2)ncc1F)(C(F)(F)F)C(F)(F)F` [Compound I, praliciguat] was tested, and the “Fasting Plasma Glucose: Between PRL and PBO Group LS Mean Change from Baseline at week 12” value ([1]; PRL 20 mg) was 2.3 mg/dL, the “Fasting Plasma Glucose: Within Group LS Mean Change from Baseline at Week 12” value ([1]; PRL 20 mg) was 6.09 mg/dL and the “Fasting Plasma Glucose: Between PRL and PBO Group LS Mean Change from Baseline at week 12” value ([1]; PRL 40 mg) was -18.2 mg/dL. For the same compound, the “Fasting Plasma Glucose: Within Group LS Mean Change from Baseline at Week 12” value ([1]; PRL 40 mg) was -14.4 mg/dL, the “Fasting Plasma Glucose: Between PRL and PBO Group LS Mean Change from Baseline at week 12” value ([1]; PRL Combined) was -7.9 mg/dL and the “Fasting Plasma Glucose: Within Group LS Mean Change from Baseline at Week 12” value ([1]; PRL Combined) was -4.1 mg/dL. The “Within Group Geometric Mean % Change UACR from Baseline” value [2, 4] was −35.2%, the “Between PRL and PBO Group Geometric Mean % Change UACR from Baseline” value [2, 4] was −23.9% and the “Within Group Geometric Mean % Change UACR from Baseline” value [2, 5] was −26.4%. For the same compound, the “Between PRL and PBO Group Geometric Mean % Change UACR from Baseline” value [2, 5] was −13.6%, the “Within Group Geometric Mean % Change UACR from Baseline” value ([2]; ITT, Week 12, PRL Combined) was −30.9% and the “Between PRL and PBO Group Geometric Mean % Change UACR from Baseline” value ([2]; ITT, Week 12, PRL Combined) was −18.9%. For the same compound, the “Within Group Geometric Mean % Change UACR from Baseline” value [2, 6] was −28.4%, the “Between PRL and PBO Group Geometric Mean % Change UACR from Baseline” value [2, 6] was −16.0% and the “Within Group Geometric Mean % Change UACR from Baseline” value ([2]; ITT, Weeks 8 & 12, PRL 40 mg total daily) was −27.3%. The “Within Group Geometric Mean % Change UACR from Baseline” value ([2]; ITT, Weeks 8 & 12, PRL Combined (20 and 40 mg)) was −27.8%, the “placebo-adjusted reduction (mean percent decrease) from baseline in UACR” value ([2]; ITT, combined praliciguat groups, Weeks 8 and 12) was 15% and the “reduction from baseline in UACR” value ([2]; ITT, combined praliciguat groups, over 12 weeks (weeks 8 and 12)) was 28%. For the same compound, the “UACR Mean % CFB at Weeks 8 & 12, Placebo Adjusted” value (shortened to “UACR Mean % CFB … Placebo Adjusted”) ([2]; mITT Population, PRL 20 mg) was −14.8%, the “UACR Mean % CFB at Weeks 8 & 12, Within Group” value (from here on “UACR Mean % CFB … Within Group”) ([2]; mITT Population, PRL 20 mg) was −18.4% and the “UACR: Mean CFB at Weeks 8 & 12, Placebo Adjusted” value (“UACR: Mean CFB … Placebo Adjusted” for short) ([2]; mITT Population, PRL 20 mg) was −21.5%. The “UACR: Mean CFB at Weeks 8 & 12, Within Group” value (“UACR: Mean CFB … Within Group” below) ([2]; mITT Population, PRL 20 mg) was −24.7%, the “UACR Mean % CFB … Placebo Adjusted” value ([2]; mITT Population, PRL 40 mg) was −25.1% and the “UACR Mean % CFB … Within Group” value ([2]; mITT Population, PRL 40 mg) was −28.3%. For the same compound, the “UACR: Mean CFB … Placebo Adjusted” value ([2]; mITT Population, PRL 40 mg) was −24.2%, the “UACR: Mean CFB … Within Group” value ([2]; mITT Population, PRL 40 mg) was −27.4% and the “UACR Mean % CFB … Placebo Adjusted” value ([2]; mITT Population, PRL Combined) was −20.1%. The “UACR Mean % CFB … Within Group” value ([2]; mITT Population, PRL Combined) was −23.5%, the “UACR: Mean CFB … Placebo Adjusted” value ([2]; mITT Population, PRL Combined) was −22.9% and the “UACR: Mean CFB … Within Group” value ([2]; mITT Population, PRL Combined) was −26.1%. For the same compound, the “placebo-adjusted mean percent decrease in UACR” value ([2]; mITT Population, combined praliciguat treatment groups, Week 12) was 23%, the “placebo-adjusted mean percent decrease from baseline in UACR” value ([2]; mITT Population, combined praliciguat treatment groups, Weeks 8 and 12) was 20% and the “placebo-corrected mean reduction from baseline in UACR” value ([2]; mITT, participants with eGFR 30-45 mL/min/1.73 m^2 at baseline, 12-week treatment) was 30-40%. For the same compound, the “Serum Cholesterol: Between PRL and PBO Group LS Mean Change from Baseline at week 12” value ([3]; PRL 20 mg) was -12.1 mg/dL, the “Serum Cholesterol: Within Group LS Mean Change from Baseline at Week 12” value ([3]; PRL 20 mg) was -7.8 mg/dL and the “Serum Cholesterol: Between PRL and PBO Group LS Mean Change from Baseline at week 12” value ([3]; PRL 40 mg) was -8.1 mg/dL. The “Serum Cholesterol: Within Group LS Mean Change from Baseline at Week 12” value ([3]; PRL 40 mg) was -3.7 mg/dL, the “Serum Cholesterol: Between PRL and PBO Group LS Mean Change from Baseline at week 12” value ([3]; PRL Combined) was -10.1 mg/dL and the “Serum Cholesterol: Within Group LS Mean Change from Baseline at Week 12” value ([3]; PRL Combined) was -5.8 mg/dL. The “Cholesterol: Placebo-Adjusted LS Mean Change from Baseline at Week 12” value ([3]; PRL 20 mg) was -13.1 mg/dL, the “Cholesterol: Within Group LS Mean Change from Baseline at Week 12” value ([3]; PRL 20 mg) was -10.6 mg/dL and the “Cholesterol: Placebo-Adjusted LS Mean Change from Baseline at Week 12” value ([3]; PRL 40 mg) was -7.5 mg/dL. The “Cholesterol: Within Group LS Mean Change from Baseline at Week 12” value ([3]; PRL 40 mg) was -4.8 mg/dL, the “Cholesterol: Placebo-Adjusted LS Mean Change from Baseline at Week 12” value ([3]; PRL Combined) was -10.2 mg/dL and the “Cholesterol: Within Group LS Mean Change from Baseline at Week 12” value ([3]; PRL Combined) was -7.7 mg/dL.
